# Earlier results in PubChem BioAssay AID1259409 (Chemical Carcinogenesis Research Information System (CCRIS), 2018).
# Where “and” joins values, the source holds several entries; their conditions need not be identical. Identical values can stand only once.
# System: rodent chemically induced tumor inhibition, incidence and multiplicity
# Experiment: CCRIS tumor inhibitor studies
smiles,measurement,setting,value
C[S+](C)CC(=O)[O-],"tumour outcome (control, treated, inhibition, significance)","Carcinogen: 7,12-DIMETHYLBENZ[A]ANTHRACENE, 57-97-6, Dose [Inhibitor]: 0, 0.005 MOL/KG DIET BEGINNING 2 WK PRIOR TO CARCINOGEN AND CONTINUED FOR STUDY DURATION (STUDY DURATION: 25 WK), Route [Inhibitor]: ORAL, Species: RAT, Strain/Sex: CD-1/FEMALE, Target Tissue: Type of Lesion: MAMMARY GLAND: ADENOCARCINOMA, Dose [Carcinogen]: 10 MG ONCE, Promoter: NONE USED","20/25 (80%), 19/25 (76%), 5%, not significant"
same,"tumour outcome (control, treated, inhibition, significance)","Carcinogen: 7,12-DIMETHYLBENZ[A]ANTHRACENE, 57-97-6, Dose [Inhibitor]: 0, 0.01 MOL/KG DIET BEGINNING 2 WK PRIOR TO CARCINOGEN AND CONTINUED FOR STUDY DURATION (STUDY DURATION: 25 WK), Route [Inhibitor]: ORAL, Species: RAT, Strain/Sex: CD-1/FEMALE, Target Tissue: Type of Lesion: MAMMARY GLAND: ADENOCARCINOMA, Dose [Carcinogen]: 10 MG ONCE, Promoter: NONE USED","20/25 (80%), 21/25 (84%), -5%, not significant"
same,"tumour outcome (control, treated, inhibition, significance)","Carcinogen: 7,12-DIMETHYLBENZ[A]ANTHRACENE, 57-97-6, Dose [Inhibitor]: 0, 0.02 MOL/KG DIET BEGINNING 2 WK PRIOR TO CARCINOGEN AND CONTINUED FOR STUDY DURATION (STUDY DURATION: 25 WK), Route [Inhibitor]: ORAL, Species: RAT, Strain/Sex: CD-1/FEMALE, Target Tissue: Type of Lesion: MAMMARY GLAND: ADENOCARCINOMA, Dose [Carcinogen]: 10 MG ONCE, Promoter: NONE USED","20/25 (80%), 18/25 (72%), 10%, not significant"
O=c1c(O)c(-c2ccc(O)cc2O)oc2cc(O)cc(O)c12,"tumour outcome (control, treated, inhibition, significance)","Carcinogen: 4-NITROQUINOLINE-1-OXIDE [56-57-5], Dose [Inhibitor]: 100 PPM IN DIET FOR 10 WK BEGINNING 1 WK PRIOR TO FIRST CARCINOGEN DOSE (STUDY DURATION: 32 WK), Route [Inhibitor]: ORAL, Species: RAT, Strain/Sex: F344/MALE, Target Tissue: Type of Lesion: TONGUE: SQUAMOUS CELL PAPILLOMA, Dose [Carcinogen]: 20 PPM FOR 8 WK IN DRINKING WATER (STUDY DURATION: 32 WK), Promoter: NONE","9/25 (36%), 3/19 (16%), 56%, not significant and 14/25 (56%), 1/19 (5%), 91%, p=0.0004"
same,"tumour outcome (control, treated, inhibition, significance)","Carcinogen: 4-NITROQUINOLINE-1-OXIDE [56-57-5], Dose [Inhibitor]: 100 PPM IN DIET FOR 22 WK BEGINNING 1 WK POST LAST CARCINOGEN DOSE (STUDY DURATION: 31 WK), Route [Inhibitor]: ORAL, Species: RAT, Strain/Sex: F344/MALE, Target Tissue: Type of Lesion: TONGUE: SQUAMOUS CELL PAPILLOMA, Dose [Carcinogen]: 20 PPM FOR 8 WK IN DRINKING WATER (STUDY DURATION: 32 WK), Promoter: NONE","9/25 (36%), 0/20 (0%), 100%, p=0.003 and 14/25 (56%), 1/20 (5%), 91%, p=0.0003"
same,"tumour outcome (control, treated, inhibition, significance)","Carcinogen: 4-NITROQUINOLINE-1-OXIDE [56-57-5], Dose [Inhibitor]: 500 PPM IN DIET FOR 10 WK BEGINNING 1 WK PRIOR TO FIRST CARCINOGEN DOSE (STUDY DURATION: 32 WK), Route [Inhibitor]: ORAL, Species: RAT, Strain/Sex: F344/MALE, Target Tissue: Type of Lesion: TONGUE: SQUAMOUS CELL PAPILLOMA, Dose [Carcinogen]: 20 PPM FOR 8 WK IN DRINKING WATER (STUDY DURATION: 32 WK), Promoter: NONE","9/25 (36%), 2/20 (10%), 72%, p=0.045 and 14/25 (56%), 0/20 (0%), 100%, p=0.00003"
same,"tumour outcome (control, treated, inhibition, significance)","Carcinogen: 4-NITROQUINOLINE-1-OXIDE [56-57-5], Dose [Inhibitor]: 500 PPM IN DIET FOR 22 WK BEGINNING 1 WK POST LAST CARCINOGEN DOSE (STUDY DURATION: 31 WK), Route [Inhibitor]: ORAL, Species: RAT, Strain/Sex: F344/MALE, Target Tissue: Type of Lesion: TONGUE: SQUAMOUS CELL PAPILLOMA, Dose [Carcinogen]: 20 PPM FOR 8 WK IN DRINKING WATER (STUDY DURATION: 32 WK), Promoter: NONE","14/25 (56%), 1/20 (5%), 91%, p=0.0003"
OC1C(O)C(O)C(O)C(O)C1O (stereo unspecified),"tumour outcome (control, treated, inhibition, significance)","Carcinogen: 7,12-DIMETHYLBENZ[A]ANTHRACENE, 57-97-6, Dose [Inhibitor]: 0, 15 MILLIMOLAR IN DRINKING WATER FOR 47 WK BEGINNING 2 WK PRIOR TO CARCINOGEN DOSE (STUDY DURATION: 47 WK), Route [Inhibitor]: ORAL, Species: RAT, Strain/Sex: SPRAGUE-DAWLEY/FEMALE, Target Tissue: Type of Lesion: MAMMARY GLAND: TUMOR, Dose [Carcinogen]: 5 MG IN 1 ML CORN OIL ONCE, Promoter: NONE USED","37/40 (93%), 30/40 (75%), 19%, p<0.05"
CC[C@@H](C)[C@@H](N)C(=O)OC,"tumour outcome (control, treated, inhibition, significance)","Carcinogen: 7,12-DIMETHYLBENZ[A]ANTHRACENE, 57-97-6, Dose [Inhibitor]: 0, 1 MG IN 0.2 ML ACETONE APPLIED 30 MIN AFTER EACH MEZEREIN DOSE (STUDY DURATION: 20 WK), Route [Inhibitor]: DERMAL, Species: MOUSE, Strain/Sex: SENCAR/FEMALE, Target Tissue: Type of Lesion: SKIN: PAPILLOMA, Dose [Carcinogen]: 0.1 UMOL IN 0.2 ML ACETONE ONCE, Promoter: TPA, 16561-29-8, MEZEREIN, 37807-41-5, Promoter: TPA, 16561-29-8, MEZEREIN, 37807-41-5","100%, 76%, 24%, p<0.005"
same,"tumour outcome (control, treated, inhibition, significance)","Carcinogen: 7,12-DIMETHYLBENZ[A]ANTHRACENE, 57-97-6, Dose [Inhibitor]: 0, 1 MG IN 0.2 ML ACETONE APPLIED 30 MIN AFTER EACH TPA DOSE (STUDY DURATION: 20 WK), Route [Inhibitor]: DERMAL, Species: MOUSE, Strain/Sex: SENCAR/FEMALE, Target Tissue: Type of Lesion: SKIN: PAPILLOMA, Dose [Carcinogen]: 0.1 UMOL IN 0.2 ML ACETONE ONCE, Promoter: TPA, 16561-29-8, MEZEREIN, 37807-41-5, Promoter: TPA, 16561-29-8, MEZEREIN, 37807-41-5","100%, 83%, 17%, p<0.005"
CN(C)CCOc1ccc([C@H]2C[C@]3(C)[C@@H](O)CC[C@H]3[C@@H]3CCc4cc(O)ccc4[C@H]32)cc1,"tumour outcome (control, treated, inhibition, significance)","Carcinogen: ESTRADIOL, 50-28-2, Dose [Inhibitor]: 0, 25 MG/PELLET 2 PELLETS IMPLANTED EVERY 3 MO BEGINNING 15 D PRIOR TO CARCINOGEN DOSE (STUDY DURATION: 8 MO), Route [Inhibitor]: SUBCUTANEOUS IMPLANT, Species: HAMSTER, Strain/Sex: SYRIAN/MALE, Target Tissue: Type of Lesion: KIDNEY: TUMOR, Dose [Carcinogen]: 25 MG PELLET IMPLANTED EVERY 3 MO, Promoter: NONE USED","5/5 (100%), 7/8 (88%), 12%, not significant"
